Assay results: publication PMC11542720, “Modelling of chromatographic and electrophoretic behaviour of imidazoline and alpha adrenergic receptors ligands under different acid-base conditions” (ADMET & DMPK, 2024)
Where “and” joins values, the source holds several entries; their conditions need not be identical. Identical values can stand only once. Counter-ions that a name gives are not always drawn. Like-named read-outs stand apart in the source and are kept apart here.

What was measured:
[1] = RP-HPLC retention on XTerra RP18, methanol/buffer; extrapolated retention factor log kw and slope S; assay type: physicochemical; details: for log kw: intercept, extrapolated to 100 % buffer, methanol/buffer, 25 °C; for S (slope): slope of log k vs methanol volume fraction
Experimental: All measurements were performed at 25°C with a constant flow rate of 0.8 mL min^-1 and UV detection in the range of 200-280 nm. The injection volume was 20 μL. […] The retention factor k was calculated for each mobile phase composition according to Equation (1):
where tr is the retention time of the tested compound and t0 is the dead volume measured with KNO3 as a non-retentive marker. The values corresponding to 100 % of the buffered eluent (log kw) were determined by extrapolation according to Equation (2):
where log kw is the intercept, S is the slope of the regression line, and φ is the volume fraction of the organic modifier in the mobile phase.
The retention behaviour in HPLC system was monitored by calculating extrapolated retention factors log kw corresponding to pure buffer as mobile phase.

[2] = Capillary electrophoresis, effective electrophoretic mobility (acetone as EOF marker); assay type: physicochemical; details: for µeff4.4 / µeff7.4 / µeff9.1: I = 25 mmol/L, 11 kV, 25 °C, three replicates; for µeff7.4: pH 7.4; for µeff9.1 / μeff9.1 (effective electrophoretic mobility): pH 9.1
Experimental: All experiments were performed using the SpectraPhoresis 500-capillary electrophoresis system (Spectra Physics Analytical, USA) with UV detector. Data were recorded and analyzed using ChromQuest software version 4.0 (Thermo Finnigan, USA).
The separations were performed with an uncoated fused capillary (total length 31.5 cm, 50 μm id, effective length 24 cm, Polymicro Technologies, USA) applying a voltage of 11 kV and at 25 °C. The samples were injected hydrodynamically and detection was performed in the 200-280 nm range. The new capillary was rinsed stepwise with 0.1 M NaOH (15 min), water (10 min) and a running buffer (10 min). Finally, a 10 min high voltage was applied through the background electrolyte-filled capillary to equalize the inner surface, stabilize the electroosmotic flow and ensure good reproducibility of injections from run to run. […] Between runs, the capillary was rinsed with the background electrolyte for 1 minute.
where Lt is the total length of the capillary (cm), Leff is the effective length of the capillary (cm), U is the applied voltage (V), tm is the migration time of the analyte (s) and teof is the migration time of the electroneutral EOF marker acetone (s). The calculated μeff values (μeff4.4, μeff7.4 and μeff9.1) were used as dependent variables in QSMR analysis.

[3] = cited from earlier work
[4] = pH titration, ref 4 (Supplement reference list)
[5] = pH spectrophotometric, ref 13 (Supplement reference list)
[6] = HPLC, ref 7 (Supplement reference list)
[7] = pH-spectrophotometric, ref 14 (Supplement reference list)

Compound | log kw ([1]; pH 4.4) | S (slope) ([1]; pH 4.4) | log kw ([1]; pH 7.4) | S (slope) ([1]; pH 7.4) | log kw ([1]; pH 9.1) | S (slope) ([1]; pH 9.1) | µeff4.4 ([2]; pH 4.4) | µeff7.4 [2] | µeff9.1 [2] | pKa experimental [3, 4] | pKa experimental [3, 5] | μeff9.1 (effective electrophoretic mobility) [2] | pKa experimental [3, 6] | log kw ([1]; pH 4.4, listed as phenilephrine) | pKa experimental (first of two printed values) [3, 7] | pKa experimental (second of two printed values) [3, 7] | pKa experimental ([3]; spectrophotometric, ref 9 (Supplement reference list)) | pKa experimental ([3]; potentiometric, ref 12 (Supplement reference list)) | pKa experimental ([3]; voltammetric, ref 6 (Supplement reference list)) | μeff4.4 (effective electrophoretic mobility) ([2]; pH 4.4)
c1cc2c(c(NC3=NCCN3)c1)CCCC2 [Tramazoline, Tramazoline hydrochloride] | 1.55 ± 0.03 | -3.43 ± 0.07 | 1.51 ± 0.01 | -3.51 ± 0.06 | 1.74 ± 0.01 | -3.37 ± 0.03 | 24.393 ± 0.067 10^-5 cm^2 V^-1 s^-1 | 22.988 ± 0.060 10^-5 cm^2 V^-1 s^-1 | 23.713 ± 0.031 10^-5 cm^2 V^-1 s^-1 | 10.66 ± 0.05 |  |  |  |  |  |  |  |  |  | 
Cc1cc(C(C)(C)C)c(O)c(C)c1CC1=NCCN1 [Oxymetazoline, oxymetazoline hydrochloride] | 2.33 ± 0.02 | -3.89 ± 0.04 | 2.33 ± 0.04 | -3.61 ± 0.10 | 2.60 ± 0.07 | -4.14 ± 0.16 | 20.276 ± 0.040 10^-5 cm^2 V^-1 s^-1 | 19.061 ± 0.049 10^-5 cm^2 V^-1 s^-1 | 19.556 ± 0.076 10^-5 cm^2 V^-1 s^-1 |  | 10.62 |  |  |  |  |  |  |  |  | 
COc1nc(C)nc(Cl)c1N=C1NCCN1 [Moxonidine, moxonidine hydrochloride] | 0.57 ± 0.03 | -3.21± 0.17 | 0.63 ± 0.03 | -2.36 ± 0.10 | 0.75 ± 0.04 | -2.31 ± 0.10 | 22.669 ± 0.104 10^-5 cm^2 V^-1 s^-1 | 10.907 ± 0.078 10^-5 cm^2 V^-1 s^-1 | 0.000 ± 0.000 10^-5 cm^2 V^-1 s^-1 |  |  | zero | 7.84 |  |  |  |  |  |  | 
CNC[C@H](O)c1cccc(O)c1 [Phenilephrine, Phenilephrine hydrochloride] | 0.09 ± 0.02 | -2.53 ± 0.14 | 0.04 ± 0.01 | -2.62 ± 0.06 | 0.39 ± 0.02 | -2.00 ± 0.06 | 25.780 ± 0.006 10^-5 cm^2 V^-1 s^-1 | 21.650 ±0.195 10^-5 cm^2 V^-1 s^-1 | 8.661 ± 0.036 10^-5 cm^2 V^-1 s^-1 |  |  |  |  | 0.09 | 9.17 | 9.17 and 10.45 (pH-spectrophotometric) [14 ] |  |  |  | 
CCC1(C2=NCCN2)Cc2ccccc2O1 (stereo not drawn) [Efaroxan, efaroxan hydrochloride] | 1.31 ± 0.02 | -3.20 ± 0.04 | 1.33± 0.03 | -3.10 ± 0.14 | 1.85 ± 0.01 | -3.38 ± 0.03 | 24.099 ± 0.035 10^-5 cm^2 V^-1 s^-1 | 22.704 ± 0.075 10^-5 cm^2 V^-1 s^-1 | 16.361 ± 0.178 10^-5 cm^2 V^-1 s^-1 |  |  |  | 10.02 |  |  |  |  |  |  | 
c1ccc2c(CC3=NCCN3)cccc2c1 [Naphazoline, naphazoline hydrochloride] | 1.52 ± 0.01 | -3.48 ± 0.04 | 1.52 ± 0.01 | -3.64 ± 0.05 | 1.76 ± 0.01 | -3.50 ± 0.03 | 25.941 ± 0.038 10^-5 cm^2 V^-1 s^-1 | 24.180 ± 0.135 10^-5 cm^2 V^-1 s^-1 | 24.643 ± 0.049 10^-5 cm^2 V^-1 s^-1 |  | 10.81 |  |  |  |  |  |  |  |  | 
COc1ccc2c(c1)[nH]c1c(C)nccc12 [Harmine, harmine hydrochloride] | 2.15 ± 0.04 | -4.28 ± 0.11 | 2.88 ± 0.05 | -3.85 ± 0.09 | 2.95 ± 0.07 | -3.97 ± 0.12 | 26.410 ± 0.068 10^-5 cm^2 V^-1 s^-1 | 13.636 ± 0.051 10^-5 cm^2 V^-1 s^-1 | 1.305 ± 0.124 10^-5 cm^2 V^-1 s^-1 |  |  |  |  |  |  |  | 7.45 (spectrophotometric) [9] |  |  | 
CN1CCN2c3ccccc3Cc3ccccc3C2C1 (stereo not drawn) [Mianserin, mianserin hydrochloride] | 2.48 ± 0.03 | -4.24 ± 0.07 | 3.91 ± 0.05 | -4.82 ± 0.08 | 3.92 ± 0.06 | -4.83 ± 0.11 | 22.471 ± 0.004 10^-5 cm^2 V^-1 s^-1 | 12.234 ± 0.109 10^-5 cm^2 V^-1 s^-1 | 0.000 ± 0.000 10^-5 cm^2 V^-1 s^-1 |  |  |  |  |  |  |  |  | 7.40 |  | 
c1ccc2c(c1)CCCC2C1=NCCN1 (stereo not drawn) [Tetrahydrozoline, tetrahydrozoline hydrochloride] | 1.06 ± 0.02 | -2.94 ± 0.05 | 1.08 ± 0.01 | -3.24 ± 0.06 | 1.32 ± 0.03 | -2.99 ± 0.07 | 25.680 ± 0.049 10^-5 cm^2 V^-1 s^-1 | 24.299 ± 0.057 10^-5 cm^2 V^-1 s^-1 | 25.047 ± 0.066 10^-5 cm^2 V^-1 s^-1 | 10.51 ± 0.05 |  | 25.05 10^-5 cm^2 / V s |  |  |  |  |  |  |  | 
COc1cc2nc(N3CCN(C(=O)C4COc5ccccc5O4)CC3)nc(N)c2cc1OC (stereo not drawn) [Doxazosin, doxazosin mesilat] | 3.42 ± 0.07 | -5.56 ± 0.14 | 3.67 ± 0.11 | -5.05 ± 0.19 | 3.60 ± 0.11 | -4.95 ± 0.20 | 15.795 ± 0.013 10^-5 cm^2 V^-1 s^-1 | 3.137 ± 0.075 10^-5 cm^2 V^-1 s^-1 | 0.000 ± 0.000 10^-5 cm^2 V^-1 s^-1 |  |  | zero |  |  |  |  |  |  | 6.89 ± 0.57 | 
c1ccc2c(c1)OCC(C1=NCCN1)O2 (stereo not drawn) [Idazoxan, idazoxan hydrochloride] | 0.82 ± 0.01 | -2.66 ± 0.03 | 0.85 ± 0.02 | -1.58 ± 0.04 | 1.53 ± 0.01 | -2.80 ± 0.01 | 26.969 ± 0.032 10^-5 cm^2 V^-1 s^-1 | 23.293 ± 0.020 10^-5 cm^2 V^-1 s^-1 | 6.627 ± 0.102 10^-5 cm^2 V^-1 s^-1 |  |  |  | 9.04 |  |  |  |  |  |  | 
CCOc1ccccc1OCCN[C@H](C)Cc1ccc(OC)c(S(N)(=O)=O)c1 [Tamsulosin, tamsulosin hydrochloride] | 2.22 ± 0.05 | -4.73 ± 0.13 | 2.75 ± 0.04 | -4.51 ± 0.10 | 3.06 ± 0.09 | -4.97 ± 0.20 | 17.310 ± 0.002 10^-5 cm^2 V^-1 s^-1 | 14.444 ± 0.058 10^-5 cm^2 V^-1 s^-1 | 2.472 ± 0.133 10^-5 cm^2 V^-1 s^-1 |  |  |  |  |  |  |  |  |  |  | 
CC1Cc2ccccc2N1NC(=O)c1ccc(Cl)c(S(N)(=O)=O)c1 (stereo not drawn) [Indapamide, indapamide] | 2.69 ± 0.02 | -4.16 ± 0.06 | 2.55 ± 0.02 | -4.19 ± 0.04 | 2.35 ± 0.03 | -3.78 ± 0.06 | 0.000 ± 0.000 10^-5 cm^2 V^-1 s^-1 | 0.000 ± 0.000 10^-5 cm^2 V^-1 s^-1 | -10.382 ± 0.053 10^-5 cm^2 V^-1 s^-1 |  |  | negative values of effective mobility |  |  |  |  |  |  |  | 0 10^-5 cm^2 / V s and 0.000 ± 0.000 10^-5 cm^2 / V s
